For this assay, the target named is NP-1 (Homo sapiens, UniProt O14786). The experiment in a line: Biotinylated-VEGF-A165 (bt-VEGF-A165) binding to NP-1. The note with it: for inhibition at 3 µM: 3 μM compound, read-out: Screen (% inhibition at 3 μM); for inhibition at 30 µM: 30 μM compound, read-out: Screen (% inhibition at 30 μM). As for the experimental part: Human prostate carcinoma DU145 cells were cultured in growth medium (RPMI 1640 containing 10% FBS and L-glutamine). DU145 cells were seeded at the density of 2×10^4 cells per well (96-well plates) in 0.1 ml growth medium and transfected with adenovirus vectors containing the full-length open-reading frame of human NP-1. The Ad.NP-1-transfected cells grew for 2 days prior to a binding assay.
Confluent Ad.NP-1-transfected cells in 96-well plates were washed twice with phosphate-buffered saline (PBS). The various concentrations of compounds diluted in binding medium (Dulbecco's modified Eagle's medium, 25 mM HEPES pH 7.3 containing 0.1% BSA) were added, followed by addition of 2 nM of bt-VEGF-A165. After 2 h of incubation at room temperature, the medium was aspirated and washed three times with PBS. The bound bt-VEGF-A165 to NP-1 was detected by streptavidin-horseradish peroxidase conjugates and the enzyme substrate, and measured using a Tecan Genios plate reader at A450 nm with a reference wavelength at A595 nm. Non-specific binding was determined in the presence of 100-fold excess unlabelled VEGF-A165.
The 96-well plates were pre-coated with NP1 protein at 3 μg/ml overnight at 4° C. On the following day, the plates were treated with blocking buffer (PBS containing 1% BSA) and washed three times with wash buffer (PBS containing 0.1% Tween-20). The various concentrations of compounds diluted in PBS containing 1% DMSO were added, followed by addition of 0.25 nM of bt-VEGF-A165. After 2 h of incubation at room temperature, the plates were washed three times with wash buffer. The bound bt-VEGF-A165 to NP-1 was detected by streptavidin-horseradish peroxidase conjugates and the enzyme substrate, and measured using a Tecan Genios plate reader at A450 nm with a reference wavelength at A595 nm. Nonspecific binding was determined in the absence of NP-1 coated wells of the plates.

pIC50: −log10 of the molar value.

The values that follow come from patent publication US20120201749A1, “NP-1 Antagonists and Their Therapeutic Use” (priority 2009, published 2012).

NP-1, sequence (O14786 22-923): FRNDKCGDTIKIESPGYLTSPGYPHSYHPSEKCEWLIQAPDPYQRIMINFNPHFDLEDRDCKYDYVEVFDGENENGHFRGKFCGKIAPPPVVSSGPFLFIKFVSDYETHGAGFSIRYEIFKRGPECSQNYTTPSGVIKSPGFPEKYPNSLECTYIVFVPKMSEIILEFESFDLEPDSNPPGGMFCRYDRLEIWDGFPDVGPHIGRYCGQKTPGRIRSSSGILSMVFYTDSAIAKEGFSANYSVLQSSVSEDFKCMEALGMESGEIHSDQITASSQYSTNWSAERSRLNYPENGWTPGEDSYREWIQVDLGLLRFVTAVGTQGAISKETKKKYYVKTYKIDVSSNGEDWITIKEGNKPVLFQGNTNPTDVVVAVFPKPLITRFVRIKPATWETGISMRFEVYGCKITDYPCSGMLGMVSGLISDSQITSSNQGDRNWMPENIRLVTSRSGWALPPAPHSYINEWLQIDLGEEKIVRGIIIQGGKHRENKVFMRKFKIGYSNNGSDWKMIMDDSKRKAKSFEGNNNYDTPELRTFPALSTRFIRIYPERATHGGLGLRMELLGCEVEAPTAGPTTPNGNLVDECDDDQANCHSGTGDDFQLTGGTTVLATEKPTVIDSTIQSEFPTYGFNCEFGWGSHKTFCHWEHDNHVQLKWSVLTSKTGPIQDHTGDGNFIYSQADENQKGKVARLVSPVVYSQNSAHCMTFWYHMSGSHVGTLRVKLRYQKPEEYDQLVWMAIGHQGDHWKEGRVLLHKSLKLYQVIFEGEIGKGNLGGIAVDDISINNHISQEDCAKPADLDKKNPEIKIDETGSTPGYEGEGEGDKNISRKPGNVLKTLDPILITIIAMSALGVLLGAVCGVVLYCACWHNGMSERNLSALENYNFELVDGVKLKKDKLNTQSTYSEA

The inhibition is the percentage by which the read-out fell short of the control. In the case of `N=C(N)NCCC[C@H](NC(=O)c1sccc1NS(=O)(=O)c1cc(-c2ccccc2CNCc2ccncc2)cc2c1OCC2)C(=O)O` [Compound 19, (S)-5-Guanidino-2-({3-[5-(2-{[(pyridin-4-ylmethyl)-amino]-methyl}-phenyl)-2,3-dihydro-benzofuran-7-sulfonylamino]-thiophene-2-carbonyl}-amino)-pentanoic acid], the inhibition at 3 µM was found to be 56%.
By pIC50 is commonly meant the IC50 on a negative log10 scale, so that one unit is a factor of ten. Higher therefore signals a small IC50. Consider `N=C(N)NCCC[C@H](NC(=O)c1sccc1NS(=O)(=O)c1cc(-c2ccccc2CN2CCNCC2)cc2c1OCC2)C(=O)O` [Compound 20, (S)-5-Guanidino-2-({3-[5-(2-piperazin-1-ylmethyl-phenyl)-2,3-dihydro-benzofuran-7-sulfonylamino]-thiophene-2-carbonyl}-amino)-pentanoic acid], for which the pIC50 was 5.70, the inhibition at 3 µM is 82% and the inhibition at 30 µM came out at 100%.
Regarding `N=C(N)NCCC[C@H](NC(=O)c1sccc1NS(=O)(=O)c1cc(-c2ccccc2CN2CCC(N)CC2)cc2c1OCC2)C(=O)O` [Compound 21, (S)-2-[(3-{5-[2-(4-Amino-piperidin-1-ylmethyl)-phenyl]-2,3-dihydro-benzofuran-7-sulfonylamino}-thiophene-2-carbonyl)-amino]-5-guanidino-pentanoic acid], the inhibition at 3 µM is 73%.
Take `N=C(N)NCCC[C@H](NC(=O)c1sccc1NS(=O)(=O)c1cc(-c2cccc(CN3CCC(N4CCOCC4)CC3)c2)cc2c1OCC2)C(=O)O` [Compound 22, (S)-5-Guanidino-2-[(3-{5-[3-(4-morpholin-4-yl-piperidin-1-ylmethyl)-phenyl]-2,3-dihydro-benzofuran-7-sulfonylamino}-thiophene-2-carbonyl)-amino]-pentanoic acid]: the inhibition at 3 µM was 70% and the inhibition at 30 µM was determined as 98%.
Regarding `Cn1cncc1CNCc1ccccc1-c1cc2c(c(S(=O)(=O)Nc3ccsc3C(=O)N[C@@H](CCCNC(=N)N)C(=O)O)c1)OCC2` [Compound 23, (S)-5-Guanidino-2-({3-[5-(2-{[(3-methyl-3H-imidazol-4-ylmethyl)-amino]-methyl}-phenyl)-2,3-dihydro-benzofuran-7-sulfonylamino]-thiophene-2-carbonyl}-amino)-pentanoic acid], the inhibition at 3 µM turned out to be 58% and the inhibition at 30 µM was determined as 97%.
In the case of `N=C(N)NCCC[C@H](NC(=O)c1sccc1NS(=O)(=O)c1cc(-c2ccccc2CNCc2ncc[nH]2)cc2c1OCC2)C(=O)O` [Compound 24, (S)-5-Guanidino-2-({3-[5-(2-{[(1H-imidazol-2-ylmethyl)-amino]-methyl}-phenyl)-2,3-dihydro-benzofuran-7-sulfonylamino]-thiophene-2-carbonyl}-amino)-pentanoic acid], the inhibition at 3 µM stood at 67% and the inhibition at 30 µM turned out to be 100%.
Turning to `N=C(N)NCCC[C@H](NC(=O)c1sccc1NS(=O)(=O)c1cc(-c2ccccc2CN2CCC(N3CCOCC3)CC2)cc2c1OCC2)C(=O)O` [Compound 25, (S)-5-Guanidino-2-[(3-{5-[2-(4-morpholin-4-yl-piperidin-1-ylmethyl)-phenyl]-2,3-dihydro-benzofuran-7-sulfonylamino}-thiophene-2-carbonyl)-amino]-pentanoic acid], the pIC50 is 6.20, the inhibition at 3 µM came out at 83% and the inhibition at 30 µM worked out at 100%.
As to `Cc1cc(CNCc2ccccc2-c2cc3c(c(S(=O)(=O)Nc4ccsc4C(=O)N[C@@H](CCCNC(=N)N)C(=O)O)c2)OCC3)no1` [Compound 26, (S)-5-Guanidino-2-({3-[5-(2-{[(5-methyl-isoxazol-3-ylmethyl)-amino]-methyl}-phenyl)-2,3-dihydro-benzofuran-7-sulfonylamino]-thiophene-2-carbonyl}-amino)-pentanoic acid], the inhibition at 3 µM was 55% and the inhibition at 30 µM was 100%.
Regarding `N=C(N)NCCC[C@H](NC(=O)c1sccc1NS(=O)(=O)c1cc(-c2cccc(CN3CCN(c4ccccn4)CC3)c2)cc2c1OCC2)C(=O)O` [Compound 27, (S)-5-Guanidino-2-[(3-{5-[3-(4-pyridin-2-yl-piperazin-1-ylmethyl)-phenyl]-2,3-dihydro-benzofuran-7-sulfonylamino}-thiophene-2-carbonyl)-amino]-pentanoic acid], the pIC50 is 6.20, the inhibition at 3 µM amounted to 88% and the inhibition at 30 µM amounted to 97%.
Taken in the same sequence, the figures for `N=C(N)NCCC[C@H](NC(=O)c1sccc1NS(=O)(=O)c1cc(-c2cccc(CN3CCN(c4ccncc4)CC3)c2)cc2c1OCC2)C(=O)O` [Compound 28, (S)-5-Guanidino-2-[(3-{5-[3-(4-pyridin-4-yl-piperazin-1-ylmethyl)-phenyl]-2,3-dihydro-benzofuran-7-sulfonylamino}-thiophene-2-carbonyl)-amino]-pentanoic acid] were 6.67, 96% and 100%.
Taken in the same sequence, the figures for `N=C(N)NCCC[C@H](NC(=O)c1sccc1NS(=O)(=O)c1cc(-c2cccc(CN3CCN(Cc4ccccn4)CC3)c2)cc2c1OCC2)C(=O)O` [Compound 29, (S)-5-Guanidino-2-[(3-{5-[3-(4-pyridin-2-ylmethyl-piperazin-1-ylmethyl)-phenyl]-2,3-dihydro-benzofuran-7-sulfonylamino}-thiophene-2-carbonyl)-amino]-pentanoic acid] were 6.16, 79% and 100%.
On to `N=C(N)NCCC[C@H](NC(=O)c1sccc1NS(=O)(=O)c1cc(-c2cccc(CN3CCN(Cc4ccncc4)CC3)c2)cc2c1OCC2)C(=O)O` [Compound 30, (S)-5-Guanidino-2-[(3-{5-[3-(4-pyridin-4-ylmethyl-piperazin-1-ylmethyl)-phenyl]-2,3-dihydro-benzofuran-7-sulfonylamino}-thiophene-2-carbonyl)-amino]-pentanoic acid], for which the negative-log IC50 (pIC50) was 6.16, the inhibition at 3 µM was 80% and the inhibition at 30 µM was 100%.
For `N=C(N)NCCC[C@H](NC(=O)c1sccc1NS(=O)(=O)c1cc(-c2cccc(CNCc3ccccn3)c2)cc2c1OCC2)C(=O)O` [Compound 31, (S)-5-Guanidino-2-({3-[5-(3-{[(pyridin-2-ylmethyl)-amino]-methyl}-phenyl)-2,3-dihydro-benzofuran-7-sulfonylamino]-thiophene-2-carbonyl}-amino)-pentanoic acid], in that order: 6.98, 86% and 99%.
For `N=C(N)NCCC[C@H](NC(=O)c1sccc1NS(=O)(=O)c1cc(-c2cccc(CNCc3ccncc3)c2)cc2c1OCC2)C(=O)O` [Compound 32, (S)-5-Guanidino-2-({3-[5-(3-{[(pyridin-4-ylmethyl)-amino]-methyl}-phenyl)-2,3-dihydro-benzofuran-7-sulfonylamino]-thiophene-2-carbonyl}-amino)-pentanoic acid], the inhibition at 3 µM stood at 75%.
In the case of `N=C(N)NCCC[C@H](NC(=O)c1sccc1NS(=O)(=O)c1cc(-c2cccc(CN3CCNCC3)c2)cc2c1OCC2)C(=O)O` [Compound 33, (S)-5-Guanidino-2-({3-[5-(3-piperazin-1-ylmethyl-phenyl)-2,3-dihydro-benzofuran-7-sulfonylamino]-thiophene-2-carbonyl}-amino)-pentanoic acid], the pIC50 was 6.44, the inhibition at 3 µM was 81% and the inhibition at 30 µM is 100%.
With `N=C(N)NCCC[C@H](NC(=O)c1sccc1NS(=O)(=O)c1cc(-c2cccc(CN3CCC(N)CC3)c2)cc2c1OCC2)C(=O)O` [Compound 34, (S)-2-[(3-{5-[3-(4-Amino-piperidin-1-ylmethyl)-phenyl]-2,3-dihydro-benzofuran-7-sulfonylamino}-thiophene-2-carbonyl)-amino]-5-guanidino-pentanoic acid], the inhibition at 3 µM is 50% and the inhibition at 30 µM was 94%.
For `N=C(N)NCCC[C@H](NC(=O)c1sccc1NS(=O)(=O)c1cc(-c2cccc(CNCCO)c2)cc2c1OCC2)C(=O)O` [Compound 35, (S)-5-Guanidino-2-{[3-(5-{3-[(2-hydroxy-ethylamino)-methyl]-phenyl}-2,3-dihydro-benzofuran-7-sulfonylamino)-thiophene-2-carbonyl]-amino}-pentanoic acid], the inhibition at 3 µM turned out to be 71% and the inhibition at 30 µM was 96%.
On to `Cn1cncc1CNCc1cccc(-c2cc3c(c(S(=O)(=O)Nc4ccsc4C(=O)N[C@@H](CCCNC(=N)N)C(=O)O)c2)OCC3)c1` [Compound 36, (S)-5-Guranidino-2-({3-[5-(3-{[(3-methyl-3H-imidazol-4-ylmethyl)-amino]-methyl}-phenyl)-2,3-dihydro-benzofuran-7-sulfonylamino]-thiophene-2-carbonyl}-amino)-pentanoic acid], for which the pIC50 is 6.49, the inhibition at 3 µM was 84% and the inhibition at 30 µM was 98%.
